Results as given in patent US10285986B2, “Compounds and anti-tumor NQO1 substrates” (The Board of Trustees of the University of Illinois, priority 2011, dated 2019).
≈ marks a conversion by molar mass, not a printed value. Where “and” joins values, the source holds several entries; their conditions need not be identical. Identical values can stand only once. Like-named read-outs stand apart in the source and are kept apart here.

How the values were obtained:
MCF-7 cells = experiment: Cytotoxicity to MCF-7 cells with or without 25 μM dicoumarol (sulforhodamine B assay); assay type: cell-based, human; settings: for IC50: Homo sapiens; for Fold Protection of MCF7 cells w/ 25 μM dicoumarol: Table 1
Description: The NQO1-dependent cytotoxicity of the first set of derivatives was determined in MCF-7 cells which express high levels of NQO1. Cells were exposed to DNQ for 2 hours in the presence or absence of 25 μM DIC. The media was then removed and cells were washed once with media then fresh media was added and the cells were incubated for 72 hours. Cell death was assessed using the sulforhodamine B assay previously described. […] Substitution off the nitrogen appeared well tolerated (4-14 and 4-15).
The DNQ derivatives synthesized were assayed for their toxicity to MCF-7 cells with or without DIC. The data from these experiments is organized in Table 4.2. […] This tolerance of sterically-demanding substituents corresponds with a flexible and promiscuous NQO1 active site. The poor activity of hydroxyl derivative 4-41 may be a result of either poor binding with the largely hydrophobic NQO1 active site or with an excessively strong substrate-enzyme interaction because of hydrogen bonding.

[1] = Aqueous solubility in pH 7.4 PBS by LC-MS; assay type: physicochemical; settings: phosphate buffered saline, pH 7.4, aqueous buffer, thermodynamic from solid, PBS pH 7.4; Table 4.3
Description: The aqueous solubility of DNQ at pH 7.4 in phosphate buffered saline (PBS) was measured by LC-MS. DNQ was sonicated for 30 minutes in PBS then undissolved solid was removed by filtration through a 0.45 μm syringe filter and the filtrate was analyzed by LC-MS (λ=275 nm, ESI-TOF in negative mode). The optimal sonication time was determined by sonicating DNQ for 1, 5, 10, and 30 minutes. While the concentration of DNQ in solution increased substantially between 1, 5, and 10 minutes, there was only a minor difference between 10 and 30 minutes. During the 30 minute sonication the water bath warmed to 45° C. (samples were cooled to room temperature before filtration). A calibration curve was generated from 1-100 μM by dissolving DNQ in methanol to a concentration of 500 μM and making dilutions of this stock in 80:20 water:methanol. The calibration curve (measure by UV absorbance) was linear over this range; 1 μM was approximately the limit of detection. […] The solution was very pale yellow.
The aqueous solubility of the compounds was determined by an LC-MS assay as described in the specification above. We applied the calibration curve generated for DNQ to the derivatives under the assumption that the UV profile of the derivatives of DNQ would be similar to that of DNQ.
After sonication and filtration most of the aqueous solutions were colorless. The solutions of DNQ, 4-31, and 4-37 were faintly yellow while 4-8, 4-14 and 4-41 were substantially more colored. The solution of 4-8, 4-14 and 4-41 were diluted 10-fold with PBS prior to LC-MS analysis to ensure that the concentrations fell within the range of the calibration curve.

[2] = Solubility in 20% HPβCD solution (pH modulation protocol); assay type: physicochemical; settings: 20% HPβCD in pH 7.4 PBS, pH 7.4, aqueous with cosolvent or surfactant or cyclodextrin, thermodynamic from solid; 20% HPβCD; Table 4.3
Description: The protocol for formulating DNQ compounds in HPβCD is as follows: the DNQ compound is slurried in a 20% solution of HPβCD in pH 7.4 PBS and the pH is then increased by the addition of 10 M NaOH to induce dissolution of the DNQ compound. The pH is returned to pH 7.5-8.0 by the careful addition of 1 M HCl. A 3.3 mM solution of the DNQ compound can be made by this method which is stable at least 24 hours. This represents a 30-fold increase in solubility of DNQ over PBS alone.
Although we were pleased to find active derivatives of DNQ that were up to 4-fold more soluble in water—sufficiently soluble for continuous IV infusion for human administration—this level of solubility was insufficient for animal studies by bolus injection. […] We used the same pH modulation protocol outlined for DNQ described in the specification above. The results are organized in Table 4.3 and FIG. 8. While all compounds were more soluble in HPβCD than in buffer alone, the fold increase in solubility varied widely.

[3] = Solubility in organic solvents; assay type: physicochemical; settings: for solubility: organic solvent or mixture, thermodynamic from solid
Description: The solubility of DNQ derivatives in organic solvents was determined by measuring the amount of a given solvent required to dissolve a known amount of compound. Solvent was added to the compound in 50 μL aliquots and the slurry was sonicated. […] Solubility was assessed in DMSO, dichloromethane, and 33% methanol in dichloromethane (FIGS. 9, 10, and 11, respectively).

NQO1 = NQO1 (Homo sapiens, UniProt P15559); experiment: NQO1 enzymatic measurements in vitro; assay type: biochemical; settings: 1 μM substrate
Chain of NQO1 (P15559 whole entry): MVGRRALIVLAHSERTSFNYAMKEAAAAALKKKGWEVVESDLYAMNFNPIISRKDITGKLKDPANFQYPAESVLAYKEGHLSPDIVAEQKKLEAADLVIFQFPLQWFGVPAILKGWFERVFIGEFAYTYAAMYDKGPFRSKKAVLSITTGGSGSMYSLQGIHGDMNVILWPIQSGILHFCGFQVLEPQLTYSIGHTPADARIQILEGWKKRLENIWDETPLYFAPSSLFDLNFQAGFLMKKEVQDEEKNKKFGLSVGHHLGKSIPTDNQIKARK
Description: As further evidence that the activity of these DNQ derivatives is dependent on their ability to be reduced by NQO1, full enzymatic measurements in vitro were performed. We found a strong correlation between catalytic efficiency of substrates in vitro and their cell culture toxicity. […] This provides strong evidence that the cytotoxicity of DNQ and its derivatives are dependent primarily upon the activity of NQO1 within the cell.

[4] = Maximum tolerated dose in mice; settings: mouse, in vivo, ip
From the text: Because of the difficulty of repeated tail vein injections in mice, our group is using IP administration of compound.
All of these derivatives are currently being assessed for their maximum tolerated dose (MTD) in healthy mice. Compounds are formulated in HPβCD and delivered by IP injection to two mice once daily for five days.

[5] = Solubility in organic solvents; assay type: physicochemical; settings: organic solvent or mixture, thermodynamic from solid; THF; Table 1
[6] = MCF7, Table 4.2, no DIC, ± s.e., read-out: IC50 vs. MCF-7 cells
[7] = MCF7, classification in figure legends of FIGS. 7-11, read-out: IC50 ("active" / generally "inactive" compounds)
[8] = MCF7, read-out: IC50 vs. MCF-7 cells +25 μM DIC, Table 4.2, +25 μM DIC, ± s.e.
[9] = 2:1 CH2Cl2:MeOH, Table 4.3, read-out: Solubility in 2:1 CH2Cl2:MeOH
[10] = CH2Cl2, Table 4.3, read-out: Solubility in CH2Cl2
[11] = DMSO, Table 4.3, read-out: Solubility in DMSO
[12] = MCF7, Table 1, read-out: MCF7 IC50
[13] = CH2Cl2:MeOH 2:1, Table 1, read-out: CH2Cl2:MeOH 2:1 solubility
[14] = CH2Cl2, Table 1, read-out: CH2Cl2 solubility
[15] = DMSO, Table 1, read-out: DMSO solubility

Compound	IC50 (MCF-7 cells; [6])	IC50 (MCF-7 cells; [7])	IC50 (MCF-7 cells; [8])	Fold protection by DIC (MCF-7 cells; Table 4.2)	solubility at 30 min [1]	solubility [2]	solubility [3, 9]	solubility [3, 10]	solubility [3, 11]	IC50 (MCF-7 cells; [12])	Fold Protection of MCF7 cells w/ 25 μM dicoumarol (MCF-7 cells)	NQO1 Initial Velocity @ 1 μM (NQO1)	Solubility in CH2Cl2 ([3]; CH2Cl2, Table 4.3)	Solubility in DMSO ([3]; DMSO, Table 4.3)	solubility [3, 13]	solubility [3, 14]	solubility [3, 15]	MTD at 5 days [4]	solubility [5]	also measured
Cc1cc(=O)[nH]c2c1C(=O)c1c(C)cc(=O)n(C(C)C)c1C2=O [Compound 4-30]	240 ± 20 nM	< 500 nM	2100 ± 800 nM	8.6	0.041 mM (≈ 12.8 µg/mL)	3.7 mM (≈ 1160 µg/mL)	79 mM (≈ 24700 µg/mL)	5.6 mM (≈ 1750 µg/mL)	21 mM (≈ 6560 µg/mL)	–	–	–	–	–	–	–	–	–	–	–
CCCCCCCn1c2c(c(C)cc1=O)C(=O)c1c(C)cc(=O)[nH]c1C2=O [Compound 4-25]	420 ± 110 nM	< 500 nM	4500 ± 400 nM	11	< 0.005 mM	3 mM (≈ 1110 µg/mL)	–	30 mM (≈ 11100 µg/mL)	13 mM (≈ 4790 µg/mL)	–	–	–	–	–	–	–	–	–	–	–
Cc1cc(=O)[nH]c2c1C(=O)c1c(C)cc(=O)n(CCC(C)C)c1C2=O [Compound 9-249]	180 ± 30 nM	< 500 nM	1800 ± 500 nM	10	0.006 mM (≈ 2.04 µg/mL)	4.7 mM (≈ 1600 µg/mL)	58 mM (≈ 19700 µg/mL)	–	–	150 ± 30 nM	12	2100 ± 90	9.7 mM (≈ 3300 µg/mL)	8.6 mM (≈ 2930 µg/mL)	58 mM (≈ 19700 µg/mL)	9.7 mM (≈ 3300 µg/mL)	8.6 mM (≈ 2930 µg/mL)	15 mg/kg and 44 µmol/kg	8.8 mM (≈ 3000 µg/mL)	–
CCCn1c2c(c(C)cc1=O)C(=O)c1c(C)cc(=O)[nH]c1C2=O [Compound 10-41]	–	< 500 nM	–	–	0.039 mM (≈ 12.2 µg/mL)	6.3 mM (≈ 1970 µg/mL)	32 mM (≈ 9990 µg/mL)	–	–	120 ± 10 nM	10	1590 ± 70	3.9 mM (≈ 1220 µg/mL)	8.9 mM (≈ 2780 µg/mL)	32 mM (≈ 9990 µg/mL)	3.9 mM (≈ 1220 µg/mL)	8.9 mM (≈ 2780 µg/mL)	≥ 14 mg/kg and ≥ 44 µmol/kg	3.4 mM (≈ 1060 µg/mL)	IC50 (MCF-7 cells; MCF7, 2 h, Table 4.1, 2 h exposure, no DIC, ± s.e., read-out: IC50 vs. MCF-7 cells): 130 ± 10 nM; IC50 (MCF-7 cells; MCF7, read-out: IC50 vs. MCF-7 cells +25 μM DIC, Table 4.1, +25 μM DIC, ± s.e.): 1300 ± 400 nM; Fold protection by DIC (MCF-7 cells; Table 4.1): 10
Cc1cc(=O)[nH]c2c1C(=O)c1c(C)cc(=O)n(CC3CC3)c1C2=O [Compound 4-37]	220 ± 10 nM	< 500 nM	1400 ± 200 nM	6.1	0.114 mM (≈ 37 µg/mL)	4.3 mM (≈ 1390 µg/mL)	51 mM (≈ 16500 µg/mL)	13 mM (≈ 4220 µg/mL)	25 mM (≈ 8110 µg/mL)	–	–	–	–	–	–	–	–	–	–	–
Cc1cc(=O)[nH]c2c1C(=O)c1c(C)cc(=O)n(CC(C)(C)C)c1C2=O [Compound 9-253]	230 ± 10 nM	< 500 nM	2100 ± 700 nM	8.9	0.024 mM (≈ 8.17 µg/mL)	9.4 mM (≈ 3200 µg/mL)	100 mM (≈ 34000 µg/mL)	–	–	110 ± 40 nM	9	1700 ± 100	23 mM (≈ 7830 µg/mL)	16 mM (≈ 5450 µg/mL)	100 mM (≈ 34000 µg/mL)	23 mM (≈ 7830 µg/mL)	16 mM (≈ 5450 µg/mL)	≥ 15 mg/kg and ≥ 44 µmol/kg	20 mM (≈ 6810 µg/mL)	–
CCCCn1c2c(c(C)cc1=O)C(=O)c1c(C)cc(=O)[nH]c1C2=O [Compound 4-22]	270 ± 40 nM	< 500 nM	1500 ± 400 nM	5.5	0.017 mM (≈ 5.55 µg/mL)	4 mM (≈ 1310 µg/mL)	30 mM (≈ 9790 µg/mL)	–	–	270 nM	5.5	2100 ± 300	7.6 mM (≈ 2480 µg/mL)	10 mM (≈ 3260 µg/mL)	30 mM (≈ 9790 µg/mL)	7.6 mM (≈ 2480 µg/mL)	10 mM (≈ 3260 µg/mL)	–	6.1 mM (≈ 1990 µg/mL)	–
CCCCn1c2c(c(CCC)cc1=O)C(=O)c1c(C)cc(=O)[nH]c1C2=O [Compound 4-26]	770 ± 190 nM	> 500 nM	2200 ± 600 nM	2.8	< 0.005 mM	–	75 mM (≈ 26600 µg/mL)	–	–	770 nM	2.8	1300 ± 200	24 mM (≈ 8510 µg/mL)	14 mM (≈ 4960 µg/mL)	75 mM (≈ 26600 µg/mL)	24 mM (≈ 8510 µg/mL)	14 mM (≈ 4960 µg/mL)	–	17 mM (≈ 6020 µg/mL)	–
